Here are results for three molecules from patent US20240299321A1, “METHODS TO SENSITIZE CANCER CELLS AND STANDARDIZED SCREENING ASSAY FOR IMMUNOTHERAPY” (THE TRUSTEES OF INDIANA UNIVERSITY, priority 2020, published 2024).

The test system of data set [1] is EO771 tumors. The data set is described as follows: EO771 orthotopic breast tumor model in immunocompetent C57BL/6 mice. The format is in vivo. Conditions: for expression of GZMB, IFNγ and TNFα in the tumor-infiltrated CD8+ T cells / tumor infiltration of T cells (total CD3+, CD4+ and CD8+): 20 mg kg-1; for expression of GZMB, IFNγ and TNFα in the tumor-infiltrated CD8+ T cells: FIG. 3E; for tumor infiltration of T cells (total CD3+, CD4+ and CD8+): flow cytometry; for tumor growth and weight: 20 mg kg-1 i.p., 3 times/week for 2 weeks; for tumor growth and weight / tumor cell proliferation (Ki67+): vs control group; for numbers of apoptotic tumor cells (cleaved Caspase 3+) / tumor cell proliferation (Ki67+): IHC of tumor tissue; for anti-tumor activity after depletion of CD4+ T cells: anti-CD4 10 mg kg-1 + drug 20 mg kg-1; for anti-tumor activity after depletion of CD8+ T cells: anti-CD8 10 mg kg-1 + drug 20 mg kg-1; for IFNγ and TNFα secretion by CD8+ T cells of drug-treated tumors: upon stimulation (PMA and ionomycin). The protocol:
(§1) T cell effector function analysis: We measured cytokine and cytolytic granule production (IFNγ, GZMB and TNFα) of CD8+ T cells from mouse tumor samples and tumor organoid-T cell co-culture. Briefly, CD8+ T cells were placed into the 24-well plate at 1×10^6 cells/well, stimulated with 1 μM ionomycin and 50 ng ml-1 phorbol 12-myristate 13-acetate (PMA) (Sigma-Aldrich) for 4 h, in the presence of 5 μg ml-1 Brefeldin A (BFA), with the purpose to amplify the expression of intracellular cytokines61. The cells were stained with APC/Cy7-conjugated anti-CD8a (Biolegend) for 15 min and then fixed by 4% PFA. After washing, cells were stained with PerCP/Cy7-conjugated anti-GZMB, APC-conjugated anti-IFNγ and PE-conjugated anti-TNFα (Biolegend) for 15 min. In flow cytometric analyses, T cells stained with isotype control antibodies were used as negative controls for gating the cytokine or granule-producing cells. For T cells from tumor organoid-T cell co-culture, tumor organoids were first digested into single cells with TrypLE Express at 37° C. before APC/Cy7-conjugated anti-CD8a staining. In the IFNγ and TNFα secretion assay (Biolegend), T cells were stimulated with ionomycin and PMA without the presence of BFA. The media were collected for ELISA assay.
Immunohistochemistry (IHC) and Immunofluorescence (IF) analysis of tumor organoids: Tumor organoids were gently centrifuged at 100 rcf from organoid culture medium and then embedded in 2% agar. Tumor organoids were fixed in 4% paraformaldehyde solution for overnight at room temperature. The samples were replaced with 70% ethanol and later embedded in paraffin blocks. Paraffin sections were cut at 5 μm thickness, attached on slides, heated at 60° C. for 1 h and then overnight at 37° C. The slides were stained with hematoxylin and eosin (H&E). IHC staining follows the protocol described62. Mouse-specific antibodies for CD8α (Cell Signaling Technology, clone D4W2Z, 1:400 dilution), cleaved caspase3 (Cell Signaling Technology, clone D175, 1:400 dilution) and Ki67 (Cell Signaling Technology, clone D3B5, 1:400 dilution) were used for IHC staining. The DAB peroxidase substrate kit (Vector laboratories Inc.) was used to visualize the antibodies. For IF analysis, the sample slides were blocked 3% BSA for 40 min after hydration. The slides were stained with primary antibodies including EpCAM (Abcam, 1:400 dilution), FITC-conjugated anti-α-SMA (Genetex, 1:400 dilution) and AF594-conjugated anti-CD31 (Biolegend) for 1 h. For EpCAM staining, the slide was further stained with secondary antibody Alexa Fluor 647-conjugated anti-rabbit IgG (Biolegend, 1:200) for 40 min. The fluorescence images were captured under a Leica DM4B microscope.
Animal studies: All animal experiments were performed in accordance with the National Institutes of Health's Animal Use Guidelines and protocols approved by the Animal Care and Use Committee of Indiana University School of Medicine. To examine the tumorigenic potential of tumor organoids, tumor organoids with different sizes (diameter of 30-70, 70-150, and 150-500 μm) were orthotopically injected into fat pad of the 4th mammary gland in female C57BL/6 mice. Each mouse was injected with a total of 2×10^5 tumor cells. 5 mice were used in each group. Tumors were measured in two dimensions using a manual caliper. Tumor volume was calculated using the following formula: V=0.5×length×width×width. Tumor volume was measured every 3 days. Tumors were harvested 22 days after injection. The tumor growth, volume and weight were analyzed. To evaluate the anti-tumor effect of drugs in immunocompetent C57BL/6 mice and immunodeficient nude (NU/J) mice, 2×10^5 EO771 cells were orthotopically injected into fat pad of the 4th mammary gland in female mice. […]
(Flow cytometry measures light scatter and fluorescence of single cells or particles in a stream.)

Data set [2] has as its system NY-ESO-1-specific CD8+ T cells. Briefly: T cell effector function in MDA-MB-468 organoid co-culture. The format is cell-based, human. The note with it: vs control groups; FIG. 2D. The protocol: as §1
For data set [3], the system named is NY-ESO-1+ MDA-MB-468 cells. The data set is described as follows: NY-ESO-1+ MDA-MB-468 organoid and NY-ESO-1-specific CD8+ T cell co-culture cytotoxicity. The data set is classed as cell-based, human. Conditions: MDA-MB-468/CAF organoids; FIG. 2C. The protocol: Breast tumor organoid culture: Single cells isolated from EO771-derived tumors in tumor-bearing C57BL/6 mice were suspended into cold mouse breast cancer culture medium containing 10% Matrigel (Corning) with a concentration of 2×10^5 cells ml^−1. The cells (2 ml) were seeded into each well of pre-warmed 6-well microplate with ultra-low attachment surface (Corning) and cultured at 37° C. with 5% CO2. The same volume of fresh culture medium was added every other day. After 7-day culture, tumor organoids were collected using cell strainers with pore size of 70 and 150 μm. For human tumor organoid culture, 2 ml of NY-ESO-1+ MDA-MB-468 cells with a concentration of 2×10^5 cells ml-1 were seeded into each well of the prewarmed 6-well microplate with ultra-low attachment surface. The cells were cultured for two days to generate tumor spheroids. The resulting spheroids were mixed with cancer associated fibroblasts (CAFs) with a ratio of 2:1 (tumor cells versus CAFs) and cultured in the human breast cancer organoid culture medium3 for 5 days. Finally, the MDA-MB-468 tumor organoids with diameter of 70˜150 μm were used for co-culture with NY-ESO-1-specific human CD8+ T cells (ASTARTE Biologics). Patient-derived organoids (PDOs) were cultured following the same procedures as mouse EO771 tumor organoids using human breast cancer organoid culture medium.
Cytotoxicity of CD8+ T cells in the co-culture with tumor organoids We generated mouse EO771 (Luc+OVA+) cell line that presents OVA257-264 antigen (from chicken ovalbumin) and human MDA-MB-468 (NY-ESO-1+) cell line that presents NY-ESO-1 antigen for use in the T cell-mediated cytotoxicity assay. OVA-specific CD8+ T cells were isolated from the spleen of OT-I mouse that contains transgenic inserts of Tcra-V2 and Tcrb-V5 genes. The transgenic T cell receptor can recognize the ovalbumin peptide SIINFEKL (OVA257-264; SEQ ID NO: 55). […] The cells were co-cultured for 24 h and subject to further analyses, such as optical and fluorescence imaging, luciferase assay or flow cytometry.

For the molecule `Nc1ccccc1NC(=O)CCCCCCC(=O)Nc1ccccc1` [BML-210], in data set [1], the “expression of GZMB, IFNγ and TNFα in the tumor-infiltrated CD8+ T cells” value is “up-regulated”; the “tumor infiltration of T cells (total CD3+, CD4+ and CD8+)” value (“tumor infiltration of T cells” for short) is reported as “higher tumor infiltration”; the “tumor growth and weight” value is recorded as “significantly suppressed”; the “numbers of apoptotic tumor cells (cleaved Caspase 3+)” value (from here on “numbers of apoptotic tumor cells”) was “increased”. In data set [1], the “tumor cell proliferation (Ki67+)” value is recorded as “markedly lower”; the “anti-tumor activity after depletion of CD4+ T cells” value was “did not have much effect”; the “anti-tumor activity after depletion of CD8+ T cells” value was “abolished the anti-tumor activity”; the “IFNγ and TNFα secretion by CD8+ T cells of drug-treated tumors” value is “secreted more IFNγ and TNFα”. The “anti-tumor activity relative to the other candidates” value in data set [1] (in vitro and in vivo assays) is on record as “most potent anti-tumor activity”. Besides, in data set [2], the “GZMB, IFNγ and TNFα expression levels in the CD8+ T cells” value (shortened to “GZMB, IFNγ and TNFα expression levels”) is recorded as “much higher”. Moreover, the T cell-mediated cytotoxicity result in data set [3] was “pronouncedly induced”.
Turning to `C#Cc1cccc(Nc2ncnc3cc(OC)c(OCCCCCCC(=O)NO)cc23)c1` [CUDC-101], in data set [1], the “expression of GZMB, IFNγ and TNFα in the tumor-infiltrated CD8+ T cells” value is “up-regulated”; the “tumor infiltration of T cells” value was “higher tumor infiltration”; the “tumor growth and weight” value is “significantly suppressed”; the “numbers of apoptotic tumor cells” value is on record as “increased”. Further, in data set [1], the “tumor cell proliferation (Ki67+)” value is recorded as “markedly lower”; the “anti-tumor activity after depletion of CD4+ T cells” value is recorded as “did not have much effect”; the “anti-tumor activity after depletion of CD8+ T cells” value is “abolished the anti-tumor activity”; the “IFNγ and TNFα secretion by CD8+ T cells of drug-treated tumors” value was “secreted more IFNγ and TNFα”. Also, the “GZMB, IFNγ and TNFα expression levels” value in data set [2] is “much higher”. Besides, the T cell-mediated cytotoxicity result in data set [3] is given as “pronouncedly induced”.
For `c1ccc([C@@H]2C[C@H]2NC2CCNCC2)cc1` [GSK-LSD1], in data set [1], the “tumor infiltration of T cells” value is reported as “higher tumor infiltration of T cells”; the “tumor growth and weight” value was “markedly suppressed”; the “numbers of apoptotic tumor cells” value is recorded as “increased”; the “tumor cell proliferation (Ki67+)” value is “much lower”. The “cytotoxicity of the CD8+ T cells in the tumors” value in data set [1] (immune analyses of treated tumors) was “enhanced cytotoxicity of the CD8+ T cells”. Also, in data set [2], the “GZMB, IFNγ and TNFα expression levels” value is listed as “much higher”. Besides, in data set [3], the T cell-mediated cytotoxicity result is given as “pronouncedly induced”.
